{"source": "paper PMC11418212", "about": "“Characterization of four structurally diverse inhibitors of SUR2-containing KATP channels” (Channels, 2024)", "key": {"Kir3.1/3.4": {"biological_target": "T1, Kir3.1/3.4 (Homo sapiens, UniProt P48544+P48549)", "T1 construct": "expressed in transfected cells", "T1 sequence (P48549 1-501)": "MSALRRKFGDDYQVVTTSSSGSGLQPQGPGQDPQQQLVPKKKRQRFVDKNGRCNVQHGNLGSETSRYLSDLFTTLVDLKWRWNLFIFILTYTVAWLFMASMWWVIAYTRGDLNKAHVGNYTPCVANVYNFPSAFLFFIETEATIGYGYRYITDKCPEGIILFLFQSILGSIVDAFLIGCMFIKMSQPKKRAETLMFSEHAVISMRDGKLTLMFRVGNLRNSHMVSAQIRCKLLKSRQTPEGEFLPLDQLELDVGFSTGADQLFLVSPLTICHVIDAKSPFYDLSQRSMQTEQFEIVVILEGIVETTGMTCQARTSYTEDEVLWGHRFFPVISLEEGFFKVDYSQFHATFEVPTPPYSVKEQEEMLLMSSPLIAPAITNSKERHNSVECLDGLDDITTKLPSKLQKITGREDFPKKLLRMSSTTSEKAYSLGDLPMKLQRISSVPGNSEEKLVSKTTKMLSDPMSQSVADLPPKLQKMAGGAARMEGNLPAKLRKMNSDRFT", "T1 sequence (P48544 1-419)": "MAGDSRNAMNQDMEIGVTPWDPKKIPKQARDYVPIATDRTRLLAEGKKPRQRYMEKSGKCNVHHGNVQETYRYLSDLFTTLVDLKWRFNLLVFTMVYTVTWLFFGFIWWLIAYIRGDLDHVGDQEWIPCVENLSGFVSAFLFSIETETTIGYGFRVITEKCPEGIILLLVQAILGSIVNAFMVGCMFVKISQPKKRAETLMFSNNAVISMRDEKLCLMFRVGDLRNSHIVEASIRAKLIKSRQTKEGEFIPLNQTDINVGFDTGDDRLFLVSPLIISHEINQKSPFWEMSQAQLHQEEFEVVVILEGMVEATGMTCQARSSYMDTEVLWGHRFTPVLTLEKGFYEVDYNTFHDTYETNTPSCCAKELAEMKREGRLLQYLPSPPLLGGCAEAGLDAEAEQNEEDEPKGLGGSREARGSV", "design": "method as in PMID 29895592", "conditions": "cited from earlier work"}, "Kir3.1/3.2": {"biological_target": "T2, Kir3.1/3.2 (Homo sapiens, UniProt P48051+P48549)", "T2 construct": "expressed in transfected cells", "T2 sequence (P48549 1-501)": "T1 sequence (P48549 1-501)", "T2 sequence (P48051 1-423)": "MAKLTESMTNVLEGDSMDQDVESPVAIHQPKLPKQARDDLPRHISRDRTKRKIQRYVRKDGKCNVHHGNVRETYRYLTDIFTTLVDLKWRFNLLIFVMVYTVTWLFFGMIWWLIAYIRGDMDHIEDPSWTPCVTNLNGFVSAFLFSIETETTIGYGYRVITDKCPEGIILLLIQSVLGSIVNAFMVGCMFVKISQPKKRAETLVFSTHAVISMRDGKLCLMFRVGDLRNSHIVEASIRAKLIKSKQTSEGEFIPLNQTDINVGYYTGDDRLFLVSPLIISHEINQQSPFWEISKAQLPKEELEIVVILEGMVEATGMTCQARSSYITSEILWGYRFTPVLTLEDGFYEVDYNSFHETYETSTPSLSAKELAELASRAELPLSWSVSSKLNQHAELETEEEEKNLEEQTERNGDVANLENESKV", "design": "method as in PMID 29895592", "conditions": "cited from earlier work"}, "Kir4.1": {"biological_target": "T3, Kir4.1 (Homo sapiens, UniProt P78508)", "T3 construct": "expressed in transfected cells", "T3 sequence (P78508 1-379)": "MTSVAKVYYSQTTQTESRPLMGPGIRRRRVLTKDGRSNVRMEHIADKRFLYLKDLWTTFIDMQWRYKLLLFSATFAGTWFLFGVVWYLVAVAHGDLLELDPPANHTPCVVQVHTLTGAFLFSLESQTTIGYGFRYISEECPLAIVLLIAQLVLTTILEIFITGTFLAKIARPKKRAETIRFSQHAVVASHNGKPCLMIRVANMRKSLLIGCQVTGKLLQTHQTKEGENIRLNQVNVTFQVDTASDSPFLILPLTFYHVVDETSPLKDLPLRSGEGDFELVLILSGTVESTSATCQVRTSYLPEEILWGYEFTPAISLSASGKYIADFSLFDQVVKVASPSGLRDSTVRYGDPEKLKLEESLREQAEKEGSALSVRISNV", "design": "method as in PMID 29895592", "conditions": "cited from earlier work"}, "Kir4.2": {"biological_target": "T4, Kir4.2 (Homo sapiens, UniProt Q99712)", "T4 construct": "expressed in transfected cells", "T4 sequence (Q99712 1-375)": "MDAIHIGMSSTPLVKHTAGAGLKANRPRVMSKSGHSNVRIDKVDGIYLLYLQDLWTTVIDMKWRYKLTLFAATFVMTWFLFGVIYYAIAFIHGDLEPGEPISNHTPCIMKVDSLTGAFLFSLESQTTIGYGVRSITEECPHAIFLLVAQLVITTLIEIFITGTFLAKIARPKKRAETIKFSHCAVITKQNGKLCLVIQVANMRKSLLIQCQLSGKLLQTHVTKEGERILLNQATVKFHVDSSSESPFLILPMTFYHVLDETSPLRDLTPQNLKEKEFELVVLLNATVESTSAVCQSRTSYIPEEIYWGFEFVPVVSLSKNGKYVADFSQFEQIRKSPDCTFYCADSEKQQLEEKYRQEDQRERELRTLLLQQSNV", "design": "method as in PMID 29895592", "conditions": "cited from earlier work"}, "Kir6.1/SUR2B [1]": {"biological_target": "T5, Kir6.1/SUR2B (Homo sapiens, UniProt O60706)", "T5 construct": "expressed in transfected cells; Kir6.1 tetracycline-inducible, SUR2B constitutive", "T5 sequence (O60706 1-1549 isoform O60706-2, species assumed)": "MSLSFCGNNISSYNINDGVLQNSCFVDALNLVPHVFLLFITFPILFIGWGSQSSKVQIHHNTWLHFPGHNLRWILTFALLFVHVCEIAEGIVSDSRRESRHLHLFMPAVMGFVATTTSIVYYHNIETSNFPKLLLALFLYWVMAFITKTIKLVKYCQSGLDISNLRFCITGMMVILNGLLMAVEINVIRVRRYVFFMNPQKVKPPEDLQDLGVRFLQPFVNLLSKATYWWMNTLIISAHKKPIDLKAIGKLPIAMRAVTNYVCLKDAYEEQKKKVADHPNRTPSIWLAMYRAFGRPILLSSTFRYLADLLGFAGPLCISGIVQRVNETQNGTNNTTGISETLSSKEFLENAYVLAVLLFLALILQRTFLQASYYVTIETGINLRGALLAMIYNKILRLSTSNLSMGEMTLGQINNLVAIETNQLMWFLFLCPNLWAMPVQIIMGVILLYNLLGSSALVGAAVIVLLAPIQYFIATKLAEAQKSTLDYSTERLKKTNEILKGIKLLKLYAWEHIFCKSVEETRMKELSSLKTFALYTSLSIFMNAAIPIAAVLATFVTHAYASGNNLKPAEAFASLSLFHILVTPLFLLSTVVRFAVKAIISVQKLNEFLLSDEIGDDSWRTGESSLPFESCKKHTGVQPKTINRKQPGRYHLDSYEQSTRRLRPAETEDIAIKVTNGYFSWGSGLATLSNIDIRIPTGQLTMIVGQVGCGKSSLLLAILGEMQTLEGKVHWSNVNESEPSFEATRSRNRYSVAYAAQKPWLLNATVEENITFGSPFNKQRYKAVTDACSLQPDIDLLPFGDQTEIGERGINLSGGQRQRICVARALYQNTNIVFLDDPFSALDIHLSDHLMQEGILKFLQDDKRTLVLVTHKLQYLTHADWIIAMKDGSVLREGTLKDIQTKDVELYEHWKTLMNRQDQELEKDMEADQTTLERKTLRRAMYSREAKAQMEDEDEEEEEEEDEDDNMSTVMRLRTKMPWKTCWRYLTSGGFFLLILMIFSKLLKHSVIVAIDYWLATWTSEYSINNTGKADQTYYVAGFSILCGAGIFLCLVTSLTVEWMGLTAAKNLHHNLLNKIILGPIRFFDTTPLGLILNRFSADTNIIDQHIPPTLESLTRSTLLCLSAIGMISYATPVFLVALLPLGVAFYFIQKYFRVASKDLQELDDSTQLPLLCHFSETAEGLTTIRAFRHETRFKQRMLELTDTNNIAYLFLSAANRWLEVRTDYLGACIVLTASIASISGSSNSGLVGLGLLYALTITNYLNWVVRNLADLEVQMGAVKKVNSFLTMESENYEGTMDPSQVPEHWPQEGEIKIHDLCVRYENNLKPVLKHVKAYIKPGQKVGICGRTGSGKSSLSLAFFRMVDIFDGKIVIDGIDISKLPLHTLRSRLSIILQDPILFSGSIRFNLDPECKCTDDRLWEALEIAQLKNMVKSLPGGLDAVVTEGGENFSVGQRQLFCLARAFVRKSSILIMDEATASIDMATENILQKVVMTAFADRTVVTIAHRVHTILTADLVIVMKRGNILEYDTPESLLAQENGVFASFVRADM", "T5 sequence (Q15842 whole entry partner, species assumed)": "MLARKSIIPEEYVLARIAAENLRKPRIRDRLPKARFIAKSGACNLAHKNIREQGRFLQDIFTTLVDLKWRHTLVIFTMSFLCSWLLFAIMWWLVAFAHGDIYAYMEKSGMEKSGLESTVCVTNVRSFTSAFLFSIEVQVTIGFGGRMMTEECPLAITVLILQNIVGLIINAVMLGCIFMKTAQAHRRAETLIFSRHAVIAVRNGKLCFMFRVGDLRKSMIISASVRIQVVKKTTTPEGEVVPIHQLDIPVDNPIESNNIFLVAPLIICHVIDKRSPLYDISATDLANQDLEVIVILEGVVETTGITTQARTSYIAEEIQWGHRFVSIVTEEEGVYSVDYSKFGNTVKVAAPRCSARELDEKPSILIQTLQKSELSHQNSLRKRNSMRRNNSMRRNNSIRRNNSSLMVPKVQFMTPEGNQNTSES", "test": "Thallium flux activation dose-response without channel pre-activation", "assay_type": "cell-based", "conditions": "no channel pre-activation; doses up to 30 µM", "method": "(§1) Thallium flux assays were conducted using the established methods. Stably transfected T-REx-HEK-293 cells expressing Kir6.2/SUR1 or Kir6.1/SUR2B were cultured overnight in polyamine-coated plates (black-walled, clear-bottomed; BD, Bedford, MA) at a density of 20,000 cells in 20 µl per well of cell culture media. The expression of Kir6.2/SUR1 or Kir6.1/SUR2B channels was induced by treating cells with 1 µg/ml tetracycline overnight. The following day, cells were rinsed with an assay buffer (Hanks’ Balanced Salt Solution supplied with 20 mM HEPES), loaded with the thallium-sensor dye Brilliant Thallos-AM AM (Ion Bioscience, San Marcos, TX) for 1 h, and then washed again with assay buffer to remove unincorporated dye. The cell plate was subsequently placed in a Panoptic Kinetic Imaging Plate Reader (Wavefront Bioscience, Franklin, TN) and imaged at a frequency of 1 Hz using 482/35 nm (excitation) and 536/40 nm (emission) filter sets. Kir6.1/SUR2B channels were activated with 10 µM pinacidil, whereas Kir6.1/SUR1 was activated with 30 µM VU0071063 [34]. To activate KATP channels independent of activators with ATP-depletion method, cells were treated with a cocktail of metabolic inhibitors (2.5 mM sodium cyanide and 20 mM 2-deoxy glucose) for 25 min before imagine. Control and test compounds diluted freshly from DMSO stocks into assay buffer were added to wells for four minutes before adding 0.5 mM chloride-free thallium stimulus buffer (Ion Bioscience) to initiate thallium flux through the expressed KATP channels. Thallium flux was recorded from all 384-wells for 2 min before terminating the experiment. […] Selectivity assays against other Kir channels were performed as described previously.\n(§2) We therefore systematically explored this possibility in dose–response experiments against Kir6.2/SUR1 in the absence of channel pre-activation. Kir6.1/SUR2B was also evaluated for comparison.\n(§3) Figure 6. Paradoxical activation of Kir6.2/SUR1. […] Fluorescence intensity at each dose was normalized to that in the absence of drug. […] (b) Activities of indicated compounds at 30 μM toward Kir6.1/SUR2B normalized to that of 30 μM pinacidil. […] (d) Activities of indicated compounds at 30 μM toward Kir6.2/SUR1 normalized to that of 30 μM VU0071063."}, "Kir6.1/SUR2B [2]": {"biological_target": "T5, Kir6.1/SUR2B", "test": "Quantitative thallium flux assay, inhibition, stably transfected T-REx-HEK293 cells", "assay_type": "cell-based"}, "Kir6.2/SUR1 [3]": {"biological_target": "T6, Kir6.2/SUR1 (Homo sapiens, UniProt Q09428)", "T6 sequence (Q09428 whole entry, species assumed)": "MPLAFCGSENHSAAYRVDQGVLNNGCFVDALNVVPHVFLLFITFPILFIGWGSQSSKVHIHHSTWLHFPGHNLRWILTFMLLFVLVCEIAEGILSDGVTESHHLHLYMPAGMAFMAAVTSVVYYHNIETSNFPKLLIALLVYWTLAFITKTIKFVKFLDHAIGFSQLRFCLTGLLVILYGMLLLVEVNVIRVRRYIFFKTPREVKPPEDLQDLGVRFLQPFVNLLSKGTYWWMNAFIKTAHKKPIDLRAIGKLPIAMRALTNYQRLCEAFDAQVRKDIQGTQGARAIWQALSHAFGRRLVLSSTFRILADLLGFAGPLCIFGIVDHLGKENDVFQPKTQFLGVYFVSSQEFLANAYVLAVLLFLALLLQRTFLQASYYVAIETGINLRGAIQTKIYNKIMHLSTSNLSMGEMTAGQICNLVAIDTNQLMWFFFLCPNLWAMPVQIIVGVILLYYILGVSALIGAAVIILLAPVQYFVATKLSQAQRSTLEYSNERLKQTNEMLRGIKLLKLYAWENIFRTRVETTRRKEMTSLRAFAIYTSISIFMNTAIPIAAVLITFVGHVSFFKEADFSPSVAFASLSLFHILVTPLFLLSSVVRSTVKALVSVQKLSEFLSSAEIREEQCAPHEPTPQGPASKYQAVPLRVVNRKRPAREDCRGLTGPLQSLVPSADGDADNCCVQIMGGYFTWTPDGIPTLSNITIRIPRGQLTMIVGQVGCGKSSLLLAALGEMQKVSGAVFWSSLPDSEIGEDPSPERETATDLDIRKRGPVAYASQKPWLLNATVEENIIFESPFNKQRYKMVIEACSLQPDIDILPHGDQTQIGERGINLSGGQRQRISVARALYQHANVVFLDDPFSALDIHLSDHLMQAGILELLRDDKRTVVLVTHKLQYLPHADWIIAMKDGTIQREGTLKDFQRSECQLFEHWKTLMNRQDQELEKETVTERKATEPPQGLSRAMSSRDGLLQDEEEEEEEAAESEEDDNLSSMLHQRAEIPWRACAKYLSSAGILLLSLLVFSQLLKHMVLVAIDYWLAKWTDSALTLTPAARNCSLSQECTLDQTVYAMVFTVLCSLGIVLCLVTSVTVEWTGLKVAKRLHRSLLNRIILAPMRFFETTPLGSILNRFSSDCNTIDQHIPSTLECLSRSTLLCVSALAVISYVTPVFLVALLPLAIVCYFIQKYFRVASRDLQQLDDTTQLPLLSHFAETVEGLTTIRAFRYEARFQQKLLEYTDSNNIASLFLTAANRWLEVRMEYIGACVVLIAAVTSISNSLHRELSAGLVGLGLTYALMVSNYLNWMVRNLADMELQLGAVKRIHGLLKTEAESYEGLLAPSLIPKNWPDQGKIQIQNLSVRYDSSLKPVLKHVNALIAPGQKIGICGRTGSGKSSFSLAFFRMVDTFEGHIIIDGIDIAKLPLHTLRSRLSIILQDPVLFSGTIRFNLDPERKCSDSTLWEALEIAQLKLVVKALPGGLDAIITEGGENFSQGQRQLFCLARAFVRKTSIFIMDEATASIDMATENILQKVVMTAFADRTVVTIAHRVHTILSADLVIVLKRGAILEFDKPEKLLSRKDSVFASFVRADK", "T6 sequence (Q14654 whole entry partner, species assumed)": "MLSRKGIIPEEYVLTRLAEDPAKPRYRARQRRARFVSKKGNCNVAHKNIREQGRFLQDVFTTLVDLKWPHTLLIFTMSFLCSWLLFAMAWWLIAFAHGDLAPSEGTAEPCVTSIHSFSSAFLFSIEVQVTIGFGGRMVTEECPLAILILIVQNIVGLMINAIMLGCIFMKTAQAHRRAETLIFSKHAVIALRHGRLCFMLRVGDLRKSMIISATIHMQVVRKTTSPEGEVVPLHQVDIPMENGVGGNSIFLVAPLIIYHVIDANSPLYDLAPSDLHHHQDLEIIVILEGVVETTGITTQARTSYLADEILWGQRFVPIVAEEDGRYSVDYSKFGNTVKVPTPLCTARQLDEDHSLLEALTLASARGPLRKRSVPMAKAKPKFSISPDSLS", "design": "method as in PMID 38302135", "conditions": "previously reported; cited from earlier work"}, "[4]": {"test_system": "isolated mouse ductus arteriosus vessels", "design": "method as in PMID 38302135", "conditions": "compared with glibenclamide; cited from earlier work"}, "Kir6.2/SUR1 [5]": {"biological_target": "T6, Kir6.2/SUR1", "test": "Thallium flux activation dose-response without channel pre-activation", "assay_type": "cell-based", "conditions": "no channel pre-activation; doses up to 30 µM", "method": "as §1, §2, §3"}, "Kir6.2/SUR1 [6]": {"biological_target": "T6, Kir6.2/SUR1", "test": "Quantitative thallium flux assay, inhibition, stably transfected T-REx-HEK293 cells", "assay_type": "cell-based", "method": "Briefly, T-Rex-HEK293 cells underwent co-transfection with pcDNA5/TO-Kir6.1 or pcDNA5/TO-Kir6.2 (inducible expression) and pcDNA3.1-SUR2B or pcDNA3.1-SUR1 (constitutive expression) using Lipofectamine LTX following the manufacturer’s instructions and were then subjected to selection with antibiotics. Monoclonal cell lines were established through limiting dilution and characterization in thallium flux assays described below. […] KATP channel selectivity assays were performed in HEK293 cells transiently transfected with the indicated subunit using Lipofectamine LTX. The cells were incubated for 48 h after transfection before performing thallium flux assays.\nas §1, with “The cell plate was subsequently placed in a Panoptic Kinetic Imaging Plate Reader (Wavefront Bioscience, Franklin, TN) and imaged at a frequency of 1 Hz using 482/35 nm (excitation) and 536/40 nm (emission) filter sets. Kir6.1/SUR2B channels were activated with 10 µM pinacidil, whereas Kir6.1/SUR1 was activated with 30 µM VU0071063 [34].” left out\nThe kinetic fluorescence measurements (F) from each well were normalized to the initial reading (F0), producing static ratios (F/F0) that adjust for variations in cell count and dye uptake. […] The response (maxmin2) was determined by subtracting the min value from the max value. Percent inhibition was calculated by normalizing each well’s response to the positive and negative controls. Concentration–response curves were fitted using a single-site, four-parameter logistic function in Prism version 4.0 (GraphPad Software Inc., San Diego, CA) to calculate the half-maximal inhibitory concentration (IC50). Statistical comparisons of IC50 values were performed using an extra sum-of-squares F test and the Mann–Whitney test. A p-value of less than 0.05 was considered statistically significant."}, "Kir6.1/SUR2B [7]": {"biological_target": "T5, Kir6.1/SUR2B", "design": "method as in PMID 38302135", "conditions": "previously reported; cited from earlier work"}, "[8]": {"conditions": "ATP depletion with sodium cyanide and 2-deoxy-glucose, read-out: IC50 Kir6.1/SUR2B, ATP depletion"}, "[9]": {"conditions": "channels activated with 10 µM pinacidil, read-out: IC50 Kir6.1/SUR2B, pinacidil activation"}, "[10]": {"conditions": "thallium flux, ATP depletion with sodium cyanide and 2-deoxy-glucose"}}, "note": "pIC50: −log10 of the molar value. “And” between values parts separate entries of the source, which are not always exact repeats. Identical values can stand only once. “Also recorded” adds a separate entry of the source. Like-named read-outs stand apart in the source and are kept apart here.", "data": [{"smiles": "CC(C)c1ccc(OCC(=O)NC2CC(C)(C)NC(C)(C)C2)c(Br)c1", "note": "[VU0134992]", "values": [{"measurement": "Efficacy of inhibition of Kir3.1/3.4", "setting": "Kir3.1/3.4; at 30 µM", "result": "greater than 90%"}, {"measurement": "pIC50", "setting": "Kir3.1/3.4", "result": 5.51}, {"measurement": "Efficacy of inhibition of Kir3.1/3.2", "setting": "Kir3.1/3.2; at 30 µM", "result": "greater than 90%"}, {"measurement": "pIC50", "setting": "Kir3.1/3.2", "result": 5.60}, {"measurement": "Efficacy of inhibition of Kir4.1", "setting": "Kir4.1; at 30 µM", "result": "greater than 90%"}, {"measurement": "pIC50", "setting": "Kir4.1", "result": 5.28}, {"measurement": "pIC50", "setting": "Kir4.2", "result": 5.09}]}, {"smiles": "COc1ccc(Cl)cc1C(=O)NCCc1ccc(S(=O)(=O)NC(=O)NC2CCCCC2)cc1", "note": "[Glibenclamide, glibenclamide, reference compound]", "values": [{"measurement": "Activation of Kir6.1/SUR2B", "setting": "Kir6.1/SUR2B [1]", "result": "failed to activate"}, {"measurement": "pIC50", "setting": "Kir6.1/SUR2B [2]; [8]", "result": "7.29 and 7.30"}, {"measurement": "pIC50", "setting": "Kir6.1/SUR2B [2]; [9]", "result": "7.48 and 7.52"}]}, {"smiles": "Cc1nc(-c2cccs2)sc1CNC(=O)Nc1cccs1", "note": "[VU0542270, reference compound]", "values": [{"measurement": "Activity toward Kir6.2/SUR1", "setting": "Kir6.2/SUR1 [3]", "result": "no apparent activity"}, {"measurement": "Potency for contraction of ductus arteriosus vessels", "setting": "[4]", "result": "same potency as glibenclamide"}, {"measurement": "Activation of Kir6.1/SUR2B", "setting": "Kir6.1/SUR2B [1]", "result": "failed to activate"}, {"measurement": "Activation of Kir6.2/SUR1", "setting": "Kir6.2/SUR1 [5]", "result": "failed to activate; also recorded: did not"}, {"measurement": "Effect on Kir6.2/SUR1 channel activity", "setting": "Kir6.2/SUR1 [6]; VU0071063 activation or ATP depletion, full range of doses tested (up to 30 µM)", "result": "no effect"}, {"measurement": "pIC50", "setting": "Kir6.2/SUR1 [6]; [10]", "result": "< 4.52"}, {"measurement": "IC50 Kir6.2/SUR1, ATP depletion", "setting": "Kir6.2/SUR1 [6]; [10]", "result": "no fit"}, {"measurement": "IC50 Kir6.2/SUR1, VU0071063 activation", "setting": "Kir6.2/SUR1 [6]; thallium flux, in the presence of 10 uM VU0071063", "result": "no fit"}, {"measurement": "pIC50", "setting": "Kir6.1/SUR2B [2]; [8]", "result": "7.51 and 7.52"}, {"measurement": "pIC50", "setting": "Kir6.1/SUR2B [2]; [9]", "result": 7.00}, {"measurement": "pIC50", "setting": "Kir6.1/SUR2B [7]", "result": "~7.00"}]}]}
